The values that follow come from PMC3427755 (Organic & biomolecular chemistry, 2012).

The target of series [1] is PDGFRα (Homo sapiens, UniProt P16234). Put plainly: Kinase profiling, PDGFRα. In kind it is biochemical. The following applies: read-out: Inhibition rate (%) PDGFRα.
In series [2] the target is IGF1R (Homo sapiens, UniProt P08069). Kind of series: Kinase profiling, IGF1R. In kind it is biochemical. The following applies: read-out: Inhibition rate (%) IGF1R.
The target of series [3] is FGFR1 (Homo sapiens, UniProt P11362). Put plainly: Kinase profiling, FGFR1. In kind it is biochemical. Particulars: for inhibition at 1 µM / inhibition at 5 µM: read-out: Inhibition rate (%) FGFR1.
The target in series [4] is B-Raf^V600E (Homo sapiens, UniProt P15056, V600E). Kind of series: In vitro B-Raf kinase assay. Particulars: for inhibition at 0.5 µM / inhibition at 2 µM: read-out: Inhibition rate (%) B-Raf^V600E. In kind it is biochemical.
The test system of series [5] is WM983B (B-Raf^V600E bearing) melanoma cells. Put plainly: Melanoma proliferation assay. In kind it is cell-based, human. Particulars: dose-dependent, 72 h, Figure 3.
The test system of series [6] is normal human primary fibroblasts (FF2508). Kind of series: Proliferation assay. In kind it is cell-based. The following applies: dose-dependent, 72 h, Figure 3.
For series [7], the system named is WM3918 melanoma cells not expressing mutant B-Raf. Put plainly: Melanoma proliferation assay. The following applies: dose-dependent, 72 h, Figure 3. In kind it is cell-based, human.
For series [8], the target named is cKIT (Homo sapiens, UniProt P10721). Kind of series: Kinase profiling, cKIT. In kind it is biochemical. The following applies: read-out: Inhibition rate (%) cKIT.
Series [9] deals with PKCα (Homo sapiens, UniProt P17252). Kind of series: Kinase profiling, PKCα. In kind it is biochemical. Particulars: read-out: Inhibition rate (%) PKCα.
Series [10] has as its target KDR (Homo sapiens, UniProt P35968). Kind of series: Kinase profiling, KDR. In kind it is biochemical. The following applies: read-out: Inhibition rate (%) KDR.
Series [11] has as its target AKT1 (Homo sapiens, UniProt P31749). Kind of series: Kinase profiling, AKT1. Particulars: read-out: Inhibition rate (%) AKT1. In kind it is biochemical.
The target in series [12] is T1, IKKβ (Homo sapiens, UniProt O14920).
T1 sequence (O14920 1-756): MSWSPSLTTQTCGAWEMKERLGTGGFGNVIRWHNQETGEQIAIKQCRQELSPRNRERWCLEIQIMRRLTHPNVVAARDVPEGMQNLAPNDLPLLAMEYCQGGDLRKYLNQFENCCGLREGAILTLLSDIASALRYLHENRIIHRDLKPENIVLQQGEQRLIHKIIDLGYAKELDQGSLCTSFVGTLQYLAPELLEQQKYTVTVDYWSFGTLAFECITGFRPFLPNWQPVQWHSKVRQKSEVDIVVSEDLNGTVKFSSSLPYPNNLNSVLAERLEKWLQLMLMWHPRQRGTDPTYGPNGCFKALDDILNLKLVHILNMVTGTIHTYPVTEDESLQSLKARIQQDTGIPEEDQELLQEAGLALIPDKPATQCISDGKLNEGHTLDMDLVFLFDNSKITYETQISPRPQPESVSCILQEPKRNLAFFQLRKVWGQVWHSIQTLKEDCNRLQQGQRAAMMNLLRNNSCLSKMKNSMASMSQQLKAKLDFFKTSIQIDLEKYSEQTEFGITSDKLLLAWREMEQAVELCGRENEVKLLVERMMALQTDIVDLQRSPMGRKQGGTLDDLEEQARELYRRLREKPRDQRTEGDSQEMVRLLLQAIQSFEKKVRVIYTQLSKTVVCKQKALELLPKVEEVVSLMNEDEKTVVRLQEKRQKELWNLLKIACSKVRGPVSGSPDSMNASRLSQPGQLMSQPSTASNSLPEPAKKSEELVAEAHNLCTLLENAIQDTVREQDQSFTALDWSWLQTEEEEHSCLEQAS
Kind of series: Kinase profiling, IKKβ. In kind it is biochemical. The following applies: for inhibition at 1 µM / inhibition at 5 µM: read-out: Inhibition rate (%) IKKβ.

Series [13] has as its target EGFR (Homo sapiens, UniProt P00533). Kind of series: Kinase profiling, EGFR. In kind it is biochemical. The following applies: read-out: Inhibition rate (%) EGFR.
The target in series [14] is ERK1 (Homo sapiens, UniProt P27361). Kind of series: Kinase profiling, ERK1. Particulars: read-out: Inhibition rate (%) ERK1. In kind it is biochemical.
The test system of series [15] is SW620 (B-Raf^WT) human colonic carcinoma cells. Kind of series: Anti-proliferation activity, SW620 cells. In kind it is cell-based. The following applies: SW-620, read-out: Tumor growth inhibition rate SW620 (B-Raf).
Series [16] has as its target MET (Homo sapiens, UniProt P08581). Kind of series: Kinase profiling, MET. In kind it is biochemical. The following applies: read-out: Inhibition rate (%) MET.
Series [17] deals with 1205Lu (B-Raf^V600E bearing) melanoma cells. Kind of series: Melanoma proliferation assay. In kind it is cell-based, human. The following applies: dose-dependent, 72 h, Figure 3.
The target of series [18] is CDK2 (Homo sapiens, UniProt P24941). Put plainly: Kinase profiling, CDK2. In kind it is biochemical. The following applies: read-out: Inhibition rate (%) CDK2.
Series [19] concerns the target LCK (Homo sapiens, UniProt P06239). Put plainly: Kinase profiling, LCK. In kind it is biochemical. The following applies: read-out: Inhibition rate (%) LCK.
Series [20] deals with SRC (Homo sapiens, UniProt P12931). Put plainly: Kinase profiling, SRC. In kind it is biochemical. The following applies: read-out: Inhibition rate (%) SRC.
For series [21], the system named is A375 (B-Raf^V600E) malignant melanoma cells. Put plainly: Anti-proliferation activity, A375 melanoma cells. In kind it is cell-based, human. Particulars: for inhibition at 10 µM: Homo sapiens, A-375, read-out: Tumor growth inhibition rate A375(B-Raf^V600E); for Tumor growth inhibition rate A375(B-Raf^V600E): [I]=10μM.
The target of series [22] is B-Raf^WT (Homo sapiens, UniProt P15056). Kind of series: In vitro B-Raf kinase assay. Particulars: for inhibition at 2 µM: read-out: Inhibition rate (%) B-Raf. In kind it is biochemical.
In series [23] the test system is patients harboring the B-Raf^V600E mutation. The following applies: cited from earlier work.
Series [24] deals with P38α (Homo sapiens, UniProt Q16539). Kind of series: Kinase profiling, P38α. In kind it is biochemical. Particulars: read-out: Inhibition rate (%) P38α.

“Also recorded” adds a separate entry of the source.

Sequence of PDGFRα (P16234 24-1089, species assumed): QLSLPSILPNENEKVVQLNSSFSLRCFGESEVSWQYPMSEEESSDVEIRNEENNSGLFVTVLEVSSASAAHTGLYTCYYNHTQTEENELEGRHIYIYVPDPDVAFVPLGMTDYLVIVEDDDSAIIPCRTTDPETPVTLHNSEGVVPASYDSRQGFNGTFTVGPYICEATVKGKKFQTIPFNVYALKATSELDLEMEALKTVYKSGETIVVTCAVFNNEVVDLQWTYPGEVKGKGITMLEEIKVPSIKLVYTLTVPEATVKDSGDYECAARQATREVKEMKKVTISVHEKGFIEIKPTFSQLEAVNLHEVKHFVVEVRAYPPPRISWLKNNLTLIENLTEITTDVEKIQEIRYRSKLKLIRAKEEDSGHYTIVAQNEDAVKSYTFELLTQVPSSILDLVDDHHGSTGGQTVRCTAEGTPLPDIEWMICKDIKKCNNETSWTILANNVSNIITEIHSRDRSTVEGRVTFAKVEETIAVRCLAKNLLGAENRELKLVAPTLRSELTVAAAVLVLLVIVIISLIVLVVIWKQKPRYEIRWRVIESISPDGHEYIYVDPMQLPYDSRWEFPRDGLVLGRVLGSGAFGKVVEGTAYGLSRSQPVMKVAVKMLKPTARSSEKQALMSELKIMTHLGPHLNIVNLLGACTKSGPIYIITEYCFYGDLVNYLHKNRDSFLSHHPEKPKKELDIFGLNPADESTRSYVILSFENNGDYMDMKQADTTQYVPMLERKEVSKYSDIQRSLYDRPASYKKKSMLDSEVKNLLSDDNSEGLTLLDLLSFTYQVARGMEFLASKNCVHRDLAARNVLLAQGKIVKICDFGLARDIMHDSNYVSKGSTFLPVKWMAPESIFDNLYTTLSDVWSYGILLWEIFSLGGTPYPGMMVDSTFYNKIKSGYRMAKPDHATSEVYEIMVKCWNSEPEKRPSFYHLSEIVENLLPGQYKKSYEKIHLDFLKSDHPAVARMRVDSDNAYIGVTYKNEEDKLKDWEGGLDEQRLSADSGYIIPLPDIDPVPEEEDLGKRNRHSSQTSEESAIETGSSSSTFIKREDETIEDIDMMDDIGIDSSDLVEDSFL
Sequence of LCK (P06239 whole entry, species assumed): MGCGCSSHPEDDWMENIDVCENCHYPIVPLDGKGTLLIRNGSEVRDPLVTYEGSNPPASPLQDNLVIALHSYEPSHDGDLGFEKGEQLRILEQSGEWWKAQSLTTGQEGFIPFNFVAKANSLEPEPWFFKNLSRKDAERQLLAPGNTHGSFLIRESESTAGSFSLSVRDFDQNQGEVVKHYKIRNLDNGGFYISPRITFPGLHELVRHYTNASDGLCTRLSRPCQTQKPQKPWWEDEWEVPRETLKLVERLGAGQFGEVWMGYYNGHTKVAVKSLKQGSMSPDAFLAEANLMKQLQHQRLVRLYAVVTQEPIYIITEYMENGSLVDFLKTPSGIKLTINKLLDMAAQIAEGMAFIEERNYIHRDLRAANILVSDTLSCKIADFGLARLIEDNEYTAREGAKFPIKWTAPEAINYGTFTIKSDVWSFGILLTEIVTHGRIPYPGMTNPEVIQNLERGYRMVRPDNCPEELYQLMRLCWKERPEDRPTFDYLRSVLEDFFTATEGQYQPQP
Sequence of AKT1 (P31749 whole entry, species assumed): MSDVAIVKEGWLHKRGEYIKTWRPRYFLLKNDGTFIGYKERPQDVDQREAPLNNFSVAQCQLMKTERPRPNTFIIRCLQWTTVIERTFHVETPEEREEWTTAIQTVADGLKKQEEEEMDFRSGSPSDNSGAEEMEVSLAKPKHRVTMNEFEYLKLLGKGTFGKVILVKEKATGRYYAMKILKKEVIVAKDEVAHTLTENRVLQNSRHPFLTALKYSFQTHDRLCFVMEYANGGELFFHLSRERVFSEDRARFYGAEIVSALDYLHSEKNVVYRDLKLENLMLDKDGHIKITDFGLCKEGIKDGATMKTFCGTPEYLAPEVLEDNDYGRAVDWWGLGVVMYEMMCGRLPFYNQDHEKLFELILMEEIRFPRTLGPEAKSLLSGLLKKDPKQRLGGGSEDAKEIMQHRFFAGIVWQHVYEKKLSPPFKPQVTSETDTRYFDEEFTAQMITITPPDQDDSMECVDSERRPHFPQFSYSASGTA
Sequence of KDR (P35968 20-1356, species assumed): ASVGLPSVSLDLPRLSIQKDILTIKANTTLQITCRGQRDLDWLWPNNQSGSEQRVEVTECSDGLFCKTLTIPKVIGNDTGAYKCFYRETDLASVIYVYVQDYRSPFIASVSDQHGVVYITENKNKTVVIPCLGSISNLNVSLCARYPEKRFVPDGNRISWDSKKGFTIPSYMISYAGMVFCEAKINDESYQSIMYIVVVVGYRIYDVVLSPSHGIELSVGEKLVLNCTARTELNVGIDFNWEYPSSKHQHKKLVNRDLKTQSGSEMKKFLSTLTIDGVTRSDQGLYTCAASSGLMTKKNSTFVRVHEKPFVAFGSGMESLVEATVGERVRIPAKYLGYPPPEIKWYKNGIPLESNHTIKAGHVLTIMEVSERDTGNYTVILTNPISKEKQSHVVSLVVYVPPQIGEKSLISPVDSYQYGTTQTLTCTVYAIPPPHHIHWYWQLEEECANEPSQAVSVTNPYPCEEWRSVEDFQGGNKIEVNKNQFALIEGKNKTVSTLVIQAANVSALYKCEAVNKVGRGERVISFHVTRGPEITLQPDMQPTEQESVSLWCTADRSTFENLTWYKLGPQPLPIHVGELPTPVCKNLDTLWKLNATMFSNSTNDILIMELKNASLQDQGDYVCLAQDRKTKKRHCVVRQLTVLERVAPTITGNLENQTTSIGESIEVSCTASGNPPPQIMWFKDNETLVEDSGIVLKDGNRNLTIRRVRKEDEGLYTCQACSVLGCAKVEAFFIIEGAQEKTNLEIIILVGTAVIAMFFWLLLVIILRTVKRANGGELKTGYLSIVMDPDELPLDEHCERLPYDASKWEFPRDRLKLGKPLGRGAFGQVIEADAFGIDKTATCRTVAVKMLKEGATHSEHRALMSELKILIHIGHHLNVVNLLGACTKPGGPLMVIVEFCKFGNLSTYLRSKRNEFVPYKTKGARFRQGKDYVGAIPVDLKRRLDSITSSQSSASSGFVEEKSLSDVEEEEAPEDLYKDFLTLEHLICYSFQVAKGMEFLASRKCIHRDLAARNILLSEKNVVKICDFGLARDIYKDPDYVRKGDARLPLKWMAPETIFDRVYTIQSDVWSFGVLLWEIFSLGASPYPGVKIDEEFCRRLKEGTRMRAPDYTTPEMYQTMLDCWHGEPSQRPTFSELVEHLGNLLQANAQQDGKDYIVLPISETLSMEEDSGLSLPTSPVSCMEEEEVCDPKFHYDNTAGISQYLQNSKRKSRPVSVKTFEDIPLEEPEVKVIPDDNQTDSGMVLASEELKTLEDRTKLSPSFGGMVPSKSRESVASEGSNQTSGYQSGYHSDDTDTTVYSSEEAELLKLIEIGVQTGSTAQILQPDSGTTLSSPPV
Sequence of B-Raf^V600E (P15056 433-726 V600E): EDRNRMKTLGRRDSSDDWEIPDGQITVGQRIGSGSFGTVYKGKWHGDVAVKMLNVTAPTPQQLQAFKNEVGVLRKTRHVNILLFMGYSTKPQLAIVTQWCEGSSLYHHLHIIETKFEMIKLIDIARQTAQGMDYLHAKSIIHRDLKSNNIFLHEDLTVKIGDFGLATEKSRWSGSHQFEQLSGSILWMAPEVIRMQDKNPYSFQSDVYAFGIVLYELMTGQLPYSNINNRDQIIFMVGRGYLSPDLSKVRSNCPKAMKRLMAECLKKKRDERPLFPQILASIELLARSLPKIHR
Sequence of B-Raf^WT (P15056 433-726): as the sequence (P15056 433-726 V600E) above, with E168V counted along it
Sequence of SRC (P12931 whole entry, species assumed): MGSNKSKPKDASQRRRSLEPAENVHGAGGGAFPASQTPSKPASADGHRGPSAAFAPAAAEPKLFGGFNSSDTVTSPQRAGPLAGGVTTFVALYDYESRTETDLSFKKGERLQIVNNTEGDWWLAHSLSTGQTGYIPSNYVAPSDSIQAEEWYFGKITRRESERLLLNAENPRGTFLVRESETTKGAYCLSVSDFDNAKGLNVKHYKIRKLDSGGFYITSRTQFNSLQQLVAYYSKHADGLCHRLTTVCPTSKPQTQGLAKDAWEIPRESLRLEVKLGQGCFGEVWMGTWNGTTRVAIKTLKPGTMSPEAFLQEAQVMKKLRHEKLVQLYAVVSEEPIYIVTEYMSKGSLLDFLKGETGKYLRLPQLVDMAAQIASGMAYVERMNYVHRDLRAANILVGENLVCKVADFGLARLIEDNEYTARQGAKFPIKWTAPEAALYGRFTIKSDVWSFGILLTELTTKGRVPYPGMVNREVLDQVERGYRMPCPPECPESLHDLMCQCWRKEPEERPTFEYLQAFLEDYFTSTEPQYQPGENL

`O=C1NC(=S)NC(=O)C1=Cc1ccc(-c2ccc3c(c2)OCO3)o1` [Compound 22q, 5-[5-(3,4-methylenedioxy)-furan-2ylmethylene]-2-thioxo-dihydro-pyrimidine-4,6-dione]: the inhibition (in general, the share of the control response that was lost under treatment) at 1 µM in series [1] came to 6%; in series [2] it was 5.6%; in series [3], 4.9%; in series [8], 18.3%; in series [11] it was 4.6%; in [12], 15%. The inhibition at 1 µM in [14] stood at 10%; in [16], 18.6%; in series [18], 3.3%; in series [20] it was 6.2%. Besides, the inhibition at 5 µM in series [1] stood at 7.7%; in series [2], 6.8%; in [3], 18.6%; in [8], 20%; in series [9], 5.2%; in [10], 1.2%. The inhibition at 5 µM in series [11] was 14.5%; in series [12], 35.7%; in series [13], 19.4%; in [14] it was 13.7%; in series [16], 19.4%; in [18] it was 12.6%. For the same compound, the inhibition at 5 µM in series [19] is 0.8%; in series [20], 15.2%. The “selectivity for B-Raf^V600E over other tested protein kinases” value in series [4] (panel of 16 protein kinases) is “more than 10 fold”. The “proliferation of WM983B cells” value in series [5] is “significantly inhibited”. Besides, the “proliferation of FF2508 fibroblasts” value in series [6] is reported as “significantly more resistant”. In addition, the “proliferation of WM3918 cells” value in [7] is “significantly more resistant”. Also, the inhibition at 10 µM in [15] stood at 47.7%; in [21], 77.7%. In [17], the “proliferation of 1205Lu cells” value was “significantly inhibited”. The “Tumor growth inhibition rate A375(B-Raf^V600E)” value in series [21] was “potent growth inhibition activity”.

On to `Cc1ccc(-c2ccc(C=C3C(=O)NC(=S)NC3=O)o2)cc1` [Compound 22g, 5-[5-(4-methyl-phenyl)-furan-2ylmethylene]-2-thioxo-dihydro-pyrimidine-4,6-dione], for which the inhibition at 0.5 µM in series [4] was found to be 50%. Besides, the values for the inhibition at 2 µM in series [4] and in series [22] were 59% and 17%, respectively. Moreover, the inhibition at 10 µM was determined as 3.6% in series [15] and 84% in series [21]. Moreover, the “Tumor growth inhibition rate A375(B-Raf^V600E)” value in series [21] (10 µM) is listed as “potent growth inhibition activity; also recorded: virtually complete growth inhibition”.

As to `CCCS(=O)(=O)Nc1ccc(F)c(C(=O)c2c[nH]c3ncc(-c4ccc(Cl)cc4)cc23)c1F` [Vemurafenib], the “side effects in treated patients” value in series [23] (Vemurafenib treated patients) is “induction of keratoacanthoma was frequently observed”. Also, in [23] (patients harboring the B-Raf^V600E mutation), the “tumor regression in patients” value is reported as “complete or partial tumor regression in the majority of patients”.

For `O=C1NC(=S)NC(=O)C1=Cc1ccc(-c2ccc(Cl)cc2)o1` [Compound 22e, 5-[5-(4-chloro-phenyl)-furan-2ylmethylene]-2-thioxo-dihydro-pyrimidine-4,6-dione], the inhibition at 0.5 µM in series [4] came to 33%. The results for the inhibition at 2 µM in [4] and in series [22] were 69% and 15%, respectively. Further, the results for the inhibition at 10 µM in series [15] and in series [21] were 9% and 82.9%, respectively. For the same compound, the “Tumor growth inhibition rate A375(B-Raf^V600E)” value in series [21] is given as “potent growth inhibition activity”.

Take `O=C1NC(=S)NC(=O)C1=Cc1ccc(-c2ccc(Br)cc2)o1` [Compound 22f, 5-[5-(4-bromo-phenyl)-furan-2ylmethylene]-2-thioxo-dihydro-pyrimidine-4,6-dione]: the inhibition at 1 µM in series [1] was found to be 7.2%; in series [2], 9.5%; in series [3], 15%; in series [8] it was 18.6%; in series [9] it was 16.2%; in series [10], 3.9%. Moreover, the inhibition at 1 µM came out at 10.8% in series [11]; 27.8% in [12]; 12.6% in [13]; 14.5% in series [14]; 34.2% in series [16]; 11.6% in series [18]. For the same compound, the inhibition at 1 µM in series [19] was determined as 10.5%; in series [20], 8.6%. For the same compound, the inhibition at 5 µM came out at 20.4% in series [1]; 15.6% in series [2]; 72.2% in series [3]; 40.3% in [8]; 26.4% in series [9]; 6.1% in series [10]. Besides, the inhibition at 5 µM was 20.3% in series [11]; 52.1% in series [12]; 46.1% in series [13]; 30.7% in series [14]; 7.7% in series [24]; 42.2% in series [16]. For the same compound, the values for the inhibition at 5 µM in series [18], in series [19] and in series [20] were 39.7%, 10.5% and 28.3%, respectively. Moreover, the “Inhibition rate (%) FGFR1” value in series [3] (5μM, ATP at Km) is “significantly inhibited”. The “proliferation of WM983B cells” value in series [5] is reported as “significantly inhibited”. The “proliferation of FF2508 fibroblasts” value in [6] is “significantly more resistant”. In addition, in [7], the “proliferation of WM3918 cells” value was “significantly more resistant”. The half-maximal inhibitory concentration (IC50) (usually the concentration needed to halve the response being measured) in series [22] was found to be 600 nM. In addition, the “Inhibition rate (%) IKKβ” value in series [12] (5μM, ATP at Km) is “significantly inhibited”. In series [17], the “proliferation of 1205Lu cells” value is “significantly inhibited”. Further, the inhibition at 10 µM in [21] was found to be 65.3%. Also, the “Tumor growth inhibition rate A375(B-Raf^V600E)” value in series [21] was “potent growth inhibition activity”.

Regarding `COc1ccc(-c2ccc(C=C3C(=O)NC(=S)NC3=O)o2)cc1` [Compound 22h, 5-[5-(4-methoxy-phenyl)-furan-2ylmethylene]-2-thioxo-dihydro-pyrimidine-4,6-dione], the figures for the IC50 in series [4] and in series [22] were 2690 nM and 3690 nM, respectively. The inhibition at 10 µM in [15] turned out to be 13%; in series [21], 94.4%. Moreover, the “Tumor growth inhibition rate A375(B-Raf^V600E)” value in series [21] (10 µM) was “potent growth inhibition activity; also recorded: virtually complete growth inhibition”.
